Test results from PMC10313808, “Lipoxygenase inhibitory synthetic derivatives of methyl gallate regulate gene expressions of COX-2 and cytokines to reduce animal model arthritis” (Scientific Reports, 2023).
Marks after values point to notes of the source that are not given here.

Assays:
[1] = Solubility noted on sample preparation; format: physicochemical; conditions: water
[2] = test system: FCA-induced arthritis; experiment: FCA-induced arthritis: hind paw volume; format: in vivo, Sprague–Dawley (SD) rats; conditions: for Percentage of inhibition (paw oedema) / Paw volume (mL) (mean ± SEM) 9th day / Paw volume (mL) (mean ± SEM) 18th day / Paw volume (mL) (mean ± SEM) 28th day / Paw volume (mL) (mean ± SEM) Initial day: FCA rats; for amount required relative to diclofenac for the same level of effect: in vivo FCA arthritis studies
Method: (§1) Chronic inflammation induced by Freund's Complete Adjuvant contains a suspension of heat-killed Mycobacterium tuberculosis in the vehicle (Chondrex, Labex Corporation). 100 μL of FCA (10 mg/mL) was injected intradermally to the left-hand paw of SD rats[42]. […] Induction of inflammation became chronic by 9–12 days and then rats were divided into 7 groups having 6 rats in each group. Everything possible was done to minimize the suffering of experimental animals. Minimum number of rats only were drafted to generate reliable data. 42 rats were randomly allocated into seven groups (6 × 7).
(§2) Group I (n = 6) served as normal rats that received an equal volume of vehicle control. Group II (n = 6) was arthritic model control treated with vehicle only. Group III (n = 6) was arthritic control which received the diclofenac (10 mg.kg^–1). Groups IV (n = 6), V (n = 6), VI (n = 6) and VII (n = 6) were treated with a low and high dose of methyl gallate (20 mg.kg^–1, 40 mg.kg^–1) and MGSD 1 (1 mg.kg^–1, 10 mg.kg^–1). The drugs were orally administered through oral gavage daily in PBS vehicle for 28 days.
By a plethysmometer the rat hind paw volume was measured from the initial day to final day (28th day) with successive intervals of 9 days, before and after FCA injection. The inhibition was calculated by the formula given below. Percentageinhibition=1-Meanchangesinpawvolumeoftreatedrat/Meanchangesinpawvolumeofuntreatedrat×100.

[3] = FCA-induced arthritis: body weight measurement; format: in vivo, Sprague–Dawley (SD) rats; conditions: FCA rats
Method: as §1, §2
The bodyweight of the animals was measured every day after the commencement of the experiment till the end (28th day). The weight change was calculated using the formula: Weightchange%=Wt-Wo/[…], where Wt is the weight of the animal at time t
Wo is the weight of the animal on the initial day.

[4] = test system: FCA-induced arthritis; experiment: FCA-induced arthritis: organ index (liver, spleen); format: in vivo, Sprague–Dawley (SD) rats; conditions: FCA rats, end of experiment
Method: as §1, §2
At the end of the experiments, animals were euthanized using ketamine injection. The liver and spleen were removed at the end of the experiment and weighed. The index of the organs was expressed as the percentage (%) wet weight of organ versus body weight. The organ indexes were calculated by using the following formula Organindex=Weightoforgang/Bodyweightg×100.

[5] = test system: FCA-induced arthritis; experiment: FCA-induced arthritis: haematological parameters; format: in vivo, Sprague–Dawley (SD) rats; conditions: FCA rats
Method: as §1, §2
Blood was drawn from jugular vein[43] and collected in heparinized tubes and used for further analysis. By using Horiba 5-part hematology analyzer the blood parameters like RBC, WBC, neutrophil and hemoglobin were analyzed. Serum parameters were analyzed using Stat Fax autoanalyzer. Serum glutamic pyruvic transaminase (SGPT), serum glutamic oxaloacetic transaminase (SGOT) and alkaline phosphatase (ALP) were determined using standard diagnostic kits (Proton, Accurex).

[6] = test system: ankle joints, liver, spleen, and thymus; experiment: FCA-induced arthritis: histological analysis; format: in vivo, Sprague–Dawley (SD) rats; conditions: FCA rats; for Histology of liver / Histology of spleen: dose not stated; for Histology of thymus: methyl gallate high dose
Method: The animals used for the FCA induced arthritis were euthanized at the end of the experiment and the ankle joints were separated from the hind paw and fixed in 10% buffered formalin. Similarly, liver, spleen, and thymus were also dissected carefully and immersed in fixative, and after 24 h each specimen were decalcified in 5% nitric acid, followed by embedding in paraffin wax and 4 µm thickness sections were prepared. These prepared sections were then mounted and stained with hematoxylin and[…] under brightfield compound binocular research microscope at 100X and 400X magnification and inflammation was graded.

O=C(O)COc1cc(C(=O)O)cc(OCC(=O)O)c1OCC(=O)O [MGSD 1, 2,2′,2″-((5-carboxybenzene-1,2,3-triyl)tris(oxy)) tri acetic acid]
solubility [1]: soluble in water | Percentage of inhibition (paw oedema) ([2]; 1 mg.kg^−1 oral): 68% | Paw volume (mL) (mean ± SEM) 9th day ([2]; 1 mg.kg^−1 oral): 0.97 ± 0.16 mL | Paw volume (mL) (mean ± SEM) 18th day ([2]; 1 mg.kg^−1 oral): 0.68 ± 0.22 mL | Paw volume (mL) (mean ± SEM) 28th day ([2]; 1 mg.kg^−1 oral): 0.59 ± 0.08 mL | Paw volume (mL) (mean ± SEM) Initial day ([2]; 1 mg.kg^−1 oral): 0.50 ± 05 mL | Percentage of inhibition (paw oedema) ([2]; 10 mg.kg^−1 oral): 70% | Paw volume (mL) (mean ± SEM) 9th day ([2]; 10 mg.kg^−1 oral): 1.05 ± 0.16 mL | Paw volume (mL) (mean ± SEM) 18th day ([2]; 10 mg.kg^−1 oral): 0.69 ± 0.22 mL | Paw volume (mL) (mean ± SEM) 28th day ([2]; 10 mg.kg^−1 oral): 0.56 ± 0.08 mL | Paw volume (mL) (mean ± SEM) Initial day ([2]; 10 mg.kg^−1 oral): 0.50 ± 0.05 mL | amount required relative to diclofenac for the same level of effect [2]: approximately 1/12 | Percentage of body weight (Mean ± SEM) 9th day ([3]; 1 mg.kg^−1 oral): 13.40 ± 0.26 % | Percentage of body weight (Mean ± SEM) 18th day ([3]; 1 mg.kg^−1 oral): 25.99 ± 51 % | Percentage of body weight (Mean ± SEM) 28th day ([3]; 1 mg.kg^−1 oral): 40.15 ± 0.00 % | Percentage of body weight (Mean ± SEM) 9th day ([3]; 10 mg.kg^−1 oral): 14.47 ± 1.13 % | Percentage of body weight (Mean ± SEM) 18th day ([3]; 10 mg.kg^−1 oral): 30.20 ± 1.57 % | Percentage of body weight (Mean ± SEM) 28th day ([3]; 10 mg.kg^−1 oral): 38.44 ± 1.81 % | Organ index (%) Liver ([4]; 1 mg.kg^−1 oral): 3.21 ± 0.12% | Organ index (%) Spleen ([4]; 1 mg.kg^−1 oral): 0.24 ± 0.00% | Organ index (%) Liver ([4]; 10 mg.kg^−1 oral): 3.18 ± 0.48% | Organ index (%) Spleen ([4]; 10 mg.kg^−1 oral): 0.22 ± 0.00% | Hb ([5]; 1 mg.kg^−1 oral): 14.8 ± 0.42 g/dL | Lymphocyte ([5]; 1 mg.kg^−1 oral): 75.8 ± 0.21% | Neutro phil ([5]; 1 mg.kg^−1 oral): 11.6 ± 0.76% | RBC ([5]; 1 mg.kg^−1 oral): 6.93 ± 0.18^# 10^6/mm^3 | WBC ([5]; 1 mg.kg^−1 oral): 9.3 ± 0.48^# 10^3/mm^3 | Hb ([5]; 10 mg.kg^−1 oral): 14.2 ± 0.26 g/dL | Lymphocyte ([5]; 10 mg.kg^−1 oral): 75.9 ± 3.44% | Neutro phil ([5]; 10 mg.kg^−1 oral): 13.4 ± 0.23% | RBC ([5]; 10 mg.kg^−1 oral): 7.075 ± 0.37^# 10^6/mm^3 | WBC ([5]; 10 mg.kg^−1 oral): 8.45 ± 0.98* 10^3/mm^3 | Histology of ankle joints ([6]; 10 mg.kg^-1): reduced oedema formation and neutrophil infiltration was found very low | Histology of liver [6]: central sinusoid visible and hepatic array of cells normal | Histology of spleen [6]: more efficient in controlling the inflammatory response than methyl gallate and diclofenac | Histology of thymus [6]: more effective than the parent compound in reverting inflammation-based T-Cell proliferation

COC(=O)c1cc(O)c(O)c(O)c1 [Methyl gallate]
Percentage of inhibition (paw oedema) ([2]; 20 mg.kg^−1 oral): 45% | Paw volume (mL) (mean ± SEM) 9th day ([2]; 20 mg.kg^−1 oral): 1.32 ± 0.16 mL | Paw volume (mL) (mean ± SEM) 18th day ([2]; 20 mg.kg^−1 oral): 1.24 ± 0.22 mL | Paw volume (mL) (mean ± SEM) 28th day ([2]; 20 mg.kg^−1 oral): 1.18 ± 0.08 mL | Paw volume (mL) (mean ± SEM) Initial day ([2]; 20 mg.kg^−1 oral): 0.56 ± 0.05 mL | Percentage of inhibition (paw oedema) ([2]; 40 mg.kg^−1 oral): 37% | Paw volume (mL) (mean ± SEM) 9th day ([2]; 40 mg.kg^−1 oral): 1.66 ± 0.18 mL | Paw volume (mL) (mean ± SEM) 18th day ([2]; 40 mg.kg^−1 oral): 1.56 ± 0.24 mL | Paw volume (mL) (mean ± SEM) 28th day ([2]; 40 mg.kg^−1 oral): 1.4 ± 0.09 mL | Paw volume (mL) (mean ± SEM) Initial day ([2]; 40 mg.kg^−1 oral): 0.50 ± 0.05 mL | Percentage of inhibition (paw oedema) ([2]; 40 mg.kg^−1 oral, listed as methyl gallate): 35–45% | amount required relative to diclofenac for the same level of effect [2]: approximately five times of diclofenac | Percentage of body weight (Mean ± SEM) 9th day ([3]; 20 mg.kg^−1 oral): 9.43 ± 0.84% | Percentage of body weight (Mean ± SEM) 18th day ([3]; 20 mg.kg^−1 oral): 23.61 ± 0.65% | Percentage of body weight (Mean ± SEM) 28th day ([3]; 20 mg.kg^−1 oral): 34.17 ± 0.23 % | Percentage of body weight (Mean ± SEM) 9th day ([3]; 40 mg.kg^−1 oral): 10.34 ± 0.52% | Percentage of body weight (Mean ± SEM) 18th day ([3]; 40 mg.kg^−1 oral): 22.42 ± 0.28% | Percentage of body weight (Mean ± SEM) 28th day ([3]; 40 mg.kg^−1 oral): 30.99 ± 0.23 % | Organ index (%) Liver ([4]; 20 mg.kg^−1 oral): 3.59 ± 0.03 % | Organ index (%) Spleen ([4]; 20 mg.kg^−1 oral): 0.27 ± 0.01% | Organ index (%) Liver ([4]; 40 mg.kg^−1 oral): 3.63 ± 0.11 % | Organ index (%) Spleen ([4]; 40 mg.kg^−1 oral): 0.28 ± 0.02% | Hb ([5]; 20 mg.kg^−1 oral): 14.2 ± 0.65 g/dL | Lymphocyte ([5]; 20 mg.kg^−1 oral): 79 ± 0.79% | Neutro phil ([5]; 20 mg.kg^−1 oral): 11.7 ± 0.25% | RBC ([5]; 20 mg.kg^−1 oral): 7.47 ± 0.32^# 10^6/mm^3 | WBC ([5]; 20 mg.kg^−1 oral): 8.3 ± 0.6 10^3/mm^3 | Hb ([5]; 40 mg.kg^−1 oral): 14.4 ± 0.74 g/dL | Lymphocyte ([5]; 40 mg.kg^−1 oral): 78.6 ± 1.85% | Neutro phil ([5]; 40 mg.kg^−1 oral): 12.8 ± 0.4% | RBC ([5]; 40 mg.kg^−1 oral): 7.87 ± 0.34^# 10^6/mm^3 | WBC ([5]; 40 mg.kg^−1 oral): 11.25 ± 0.62^# 10^3/mm^3 | Histology of ankle joints ([6]; 40 mg.kg^-1): synovial space with neutrophil infiltration, although much less than that of arthritic control | Histology of liver [6]: hepatocyte arrays and central sinusoid area were seen to regain normalcy and a few necrotic cells were still visible | Histology of spleen [6]: lesser degree of spleen reversion | Histology of thymus [6]: effective in controlling inflammation-based T-Cell proliferation
